# Key:
# [1] = system: spleen cells stimulated with the whole inactivated virus; assay type: in vivo, BALB/c mice; settings: after stimulation with inactivated virus; mice given ethyl DOPC in addition to the antigen
# [2] = system: spleen cells secreting γ-interferon; assay type: in vivo, BALB/c mice; settings: after restimulation with inactivated SARS virus; in response to some of the peptides used
smiles,measurement,setting,value
"CCCCCCCC/C=C\CCCCCCCC(=O)OC[C@@H](COP(=O)(OCC)OCC[N+](C)(C)C)OC(=O)CCCCCCC/C=C\CCCCCCCC (stereo partly drawn) [ethyl DOPC, 1,2-dioleoyl-sn-glycero-3-ethylphosphocholine]",production of IL-5 (in words),[1],not clearly modified
same,production of γ-IFN (in words),[1],considerably increased
same,production of γ-interferon (ELISPOT after restimulation),[2],increased
